Entries after “also recorded” stand apart in the source; their conditions may differ. Non-standard residues stand in square brackets, D forms with d. Residues, ends and D or L forms follow the SMILES beside them. *: point of attachment. 2Nal = N[C@@H](Cc1ccc2ccccc2c1)C(=O)O; Cit = NC(=O)NCCC[C@H](N)C(=O)O; Pip = O=C(O)[C@@H]1CCCCN1; ClAc = O=C(CCl)*
Columns and labels:
Pin1 (GST-Pin1) = Pin1 (GST-Pin1) (Homo sapiens, UniProt Q13526); experiment: Chymotrypsin-coupled PPIase assay, inhibition of isomerase activity; format: biochemical; details: 12 hours pre-incubation at 4° C.; Cheng-Prusoff equation; read-out: Ki, μM (PPlase Assay)
Pin1 (GST-Pin1), sequence (Q13526 whole entry): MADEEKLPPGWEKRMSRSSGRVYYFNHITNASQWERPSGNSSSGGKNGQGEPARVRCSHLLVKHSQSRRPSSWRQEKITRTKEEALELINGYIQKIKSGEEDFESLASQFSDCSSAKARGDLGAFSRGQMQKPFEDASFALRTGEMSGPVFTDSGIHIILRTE
Experimental: Inhibition of Pin1 isomerase activity was determined using the chymotrypsin-coupled PPIase assay, using GST-Pin1 and Suc-Ala-pSer-Pro-Phe-pNA peptide substrate ([…]), as described previously (Yaffe et al., Science 275:1957-1960 (1997)). GST-Pin1 was pre-incubated with the indicated concentrations of compound for 12 hours at 4° C. in buffer containing 35 mM HEPES (pH 7.8), 0.2 mM DTT, and 0.1 mg/mL bovine serum albumin (BSA). Immediately before the assay was started, chymotrypsin (final concentration 6 mg/mL), followed by the peptide substrate (Suc-Ala-pSer-Pro-Phe-pNA peptide substrate, final concentration […]) was added. The Ki value obtained from the PPIase assay was derived from the Cheng-Prusoff equation, Ki=IC50/(1+S/Km), where Km is the Michaelis constant for the used substrate, S is the initial concentration of the substrate in the assay, and IC50 is the […] inhibitory concentration of the inhibitor.

Pin1 Cys 113 = Pin1 Cys 113 (Homo sapiens, UniProt Q13526); experiment: Covalent labeling (intact MS); format: binding; details: for Covalent? (In tact MS), % labeling: purified Pin1 with 5 μM inhibitor, 0-3 hr
Pin1 Cys 113, sequence (Q13526 whole entry): as above
Experimental: 5 μg of purified Pin1 protein in 50 μL of 20 mM HEPES pH 7.5 and 75 mM NaCl was incubated with 5 μM of respective Pin1 inhibitors for 0-3 hr. A Shimadzu XR HPLC was used to inject the entire sample onto a self-packed reverse-phase column (1/32 in outer diameter×500 μm inner diameter, 5 cm of POROS 50R2 resin). After desalting, protein was eluted with an HPLC gradient (0%-100% B in 4 min, A=0.2 M acetic acid in water, B=0.2 M acetic acid in acetonitrile, flow rate=10 μl/min) into a LTQ XL mass spectrometer (Thermo Fisher Scientific, San Jose, Calif., USA). LTQ XL MS spectra were acquired in centroid mode using the electron multipliers for ion detection. Mass spectra were deconvoluted using MagTran1.03b2 software (Zhang and Marshall, J. Am. Soc. Mass Spectrom. 9:225-233 (1998)).

Pin1 [1] = molecular target: T1, Pin1 (Homo sapiens, UniProt Q13526); experiment: Lysate target engagement (pull down with biotinylated probes; competition assay); format: binding; design: endogenous in cells; host or cells: MDA-MB-231; details: for Lysate Target Engagement?: TNBC-MDA-MB-231 lysate, biotin/dtb probes: pull down, others: competition, concentration under E5
T1 sequence (Q13526 whole entry): as above
Outline: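 MDA-MB-231 (TNBC) lysates, 500 μg protein, incubated 1 h at 4 °C with compound, then streptavidin pull-down 2 h at 4 °C; western blot read-out. Competition format: lysate pre-incubated overnight at 4 °C with competitor, then 1 μM desthiobiotin probe for 1 h before pull-down.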

Pin1 [2] = molecular target: T1, Pin1; experiment: X-ray crystallography; design: A construct of full-length human Pin1 in a pET28 vector; made in house; host or cells: E. coli BL21 (DE3)
Experimental: A construct of full-length human Pin1 in a pET28 vector was overexpressed in E. coli BL21 (DE3) in LB medium in the presence of […] of kanamycin. Cells were grown at 37° C. to an OD of 0.8, cooled to 17° C., induced with 500 μM isopropyl-1-thio-D-galactopyranoside, incubated overnight at 17° C., collected by centrifugation, and stored at −80° C. Cell pellets were sonicated in buffer A (50 mM hepes 7.5, 300 mM NaCl, 10% glycerol, 10 mM Imidazole, and 3 mM 2-mercaptoethanol (BME) and the resulting lysate was centrifuged at 30,000×g for 40 min. Ni-NTA beads (Qiagen) were mixed with lysate supernatant for 30 min and washed with buffer A. Beads were transferred to an FPLC-compatible column and the bound protein was washed with 15% buffer B (50 mM hepes 7.5, 300 mM NaCl, 10% glycerol, 300 mM imidazole, and 3 mM BME) and eluted with 100% buffer B. Thrombin was added to the eluted protein and incubated at 4° C. overnight. The sample was concentrated and passed through a Superdex® 200 10/300 column (GE healthcare) in a buffer containing 20 mM hepes 7.5, 150 mMNaCl, 5% glycerol, 3 mM DTT, and 1 mM tris(2-carboxyethyl)phosphine (TCEP). Fractions were pooled, concentrated to approximately 37 mg/ml and frozen at −80° C.
Apo protein at a final concentration of 1 mM was crystallized by sitting-drop (200 nL+200 nL) vapor diffusion at 20° C. in the following crystallization buffer: 3 M (NH4)2SO4, 100 mM BisTris-pH 7.0, 1% PEG400, and 1 mM DTT. A volume of 200 nL of 1 mM compound 2b-6 was added directly to crystals for soaking at 20° C. for 16 hrs. Crystals were transferred briefly into crystallization buffer containing 25% glycerol prior to flash-freezing in liquid nitrogen.
Diffraction data from complex crystals were collected at beamline 24ID-E of the NE-CAT at the Advanced Photon Source (Argonne National Laboratory). Data sets were integrated and scaled using XDS (Kabsch, Acta Crystallogr. D Biol. Crystallogr. D66: 133-144 (2010)). […]

| SMILES | Ki (Pin1 (GST-Pin1)) [µM] | Pin1 covalent labeling time course (FIG. 3A) (Pin1 Cys 113; over the course of 60 minutes) | Covalent? (In tact MS), % labeling (Pin1 Cys 113) | Lysate Target Engagement? (Pin1 [1]) | X-Ray Crystal Structure? (Pin1 [2]) | binding mode in x-ray co-crystal structure (FIG. 4A) (Pin1 [2]; 1.8 A resolution, crystal soaking) | Lysate Target Engagement? concentration stated for the engagement or pull down (Pin1 [1]; read with the E4 line of the same compound (complete, partial, probe pull down)) |
| --- | --- | --- | --- | --- | --- | --- | --- |
| N=C(N)NCCC[C@H](NC(=O)[C@H](Cc1ccc2ccccc2c1)NC(=O)[C@@H]1CCCCN1C(=O)[C@H](CCC(=O)O)NC(=O)CCl)C(N)=O [Compound 2b-6, (S)-5-((S)-2-(((S)-1-(((S)-1-Amino-5-guanidino-1-oxopentan-2-yl)amino)-3-(naphthalen-2-yl)-1-oxopropan-2-yl)carbamoyl)piperidin-1-yl)-4-(2-chloroacetamido)-5-oxopentanoic acid] (ClAc-E[Pip][2Nal]R-NH2) | 0.04 | rapidly labeled Pin1 Cysl 13 | Yes (100% | No | Yes | covalently bound to Pin1; also recorded: covalently bound to Cys113 in the PPIase active site | – |
| NC(=O)CC[C@H](NC(=O)[C@H](Cc1ccc2ccccc2c1)NC(=O)[C@@H]1CCCCN1C(=O)[C@H](CCC(=O)O)NC(=O)CCl)C(N)=O [Compound 2b-3, (S)-4-(2-Chloroacetamido)-5-((S)-2-(((S)-1-(((S)-1,5-diamino-1,5-dioxopentan-2-yl)amino)-3-(naphthalen-2-yl)-1-oxopropan-2-yl)carbamoyl)piperidin-1-yl)-5-oxopentanoic acid] (ClAc-E[Pip][2Nal]Q-NH2) | – | – | Yes (81% | – | Yes | – | – |
| NC(=O)NCCC[C@H](NC(=O)[C@H](Cc1ccc2ccccc2c1)NC(=O)[C@@H]1CCCCN1C(=O)[C@H](CCC(=O)O)NC(=O)CCl)C(N)=O [Compound 2b-13, (S)-5-((S)-2-(((S)-1-(((S)-1-Amino-1-oxo-5-ureidopentan-2-yl)amino)-3-(naphthalen-2-yl)-1-oxopropan-2-yl)carbamoyl)piperidin-1-yl)-4-(2-chloroacetamido)-5-oxopentanoic acid] (ClAc-E[Pip][2Nal][Cit]-NH2) | 0.021 | – | – | Yes-Complete | – | – | at 10 μM |

From patent publication US20210238225A1, “PEPTIDOMIMETIC INHIBITORS OF THE PEPTIDYL-PROLYL CIS/TRANS ISOMERASE (PIN1)” (DANA-FARBER CANCER INSTITUTE, INC., priority 2018, published 2021)
